The Km is the concentration of substrate that gives half-maximal velocity. The Vmax is the rate approached at saturating substrate.

The record followed here is PMC4894917, “Differences in Enzymatic Properties of the Saccharomyces kudriavzevii and Saccharomyces uvarum Alcohol Acetyltransferases and Their Impact on Aroma-Active Compounds Production” (Frontiers in Microbiology, 2016).

One data set deals with T1, SuAtf2p (Saccharomyces uvarum, UniProt A0ABN8WWD5).
T1 construct: gene SUVZ07G4070; full-length untagged, pG-SuATF2-TDH3p in S. cerevisiae BY4741 atf1 atf2 iah1, cell extract (strain CLpSuATF2); N-terminus MDSLEEY translated from printed primer pGSuATF2f
T1 sequence (A0ABN8WWD5 1-545): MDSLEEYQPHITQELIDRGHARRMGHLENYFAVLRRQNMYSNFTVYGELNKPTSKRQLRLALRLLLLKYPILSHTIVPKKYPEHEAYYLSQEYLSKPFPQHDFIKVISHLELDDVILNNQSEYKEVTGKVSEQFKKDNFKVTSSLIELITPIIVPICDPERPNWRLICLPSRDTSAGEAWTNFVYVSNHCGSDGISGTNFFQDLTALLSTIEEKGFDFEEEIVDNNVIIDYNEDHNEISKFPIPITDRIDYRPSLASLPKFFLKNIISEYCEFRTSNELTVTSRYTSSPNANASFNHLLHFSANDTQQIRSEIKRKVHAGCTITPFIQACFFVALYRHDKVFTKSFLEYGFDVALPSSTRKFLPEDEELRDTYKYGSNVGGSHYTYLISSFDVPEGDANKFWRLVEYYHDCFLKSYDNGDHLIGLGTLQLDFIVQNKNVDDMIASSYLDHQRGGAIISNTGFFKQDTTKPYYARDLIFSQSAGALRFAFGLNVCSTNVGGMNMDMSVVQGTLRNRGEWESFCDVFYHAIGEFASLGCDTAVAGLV
Put plainly: acetate ester formation by headspace SPME gas chromatography, cell extract. Particulars: acetyl-CoA 0.8 mM, 50 mM potassium phosphate pH 7.5, 10% glycerol. The format is biochemical.

The target of a further data set is T2, SkAtf2p (Saccharomyces kudriavzevii, UniProt A0AA35JHW3).
T2 construct: gene SKDI07G4300; full-length untagged, pG-SkATF2-TDH3p in S. cerevisiae BY4741 atf1 atf2 iah1, cell extract (strain CLpSkATF2); N-terminus MDDIEEY translated from printed primer pGSkATF2f
T2 sequence (A0AA35JHW3 1-535): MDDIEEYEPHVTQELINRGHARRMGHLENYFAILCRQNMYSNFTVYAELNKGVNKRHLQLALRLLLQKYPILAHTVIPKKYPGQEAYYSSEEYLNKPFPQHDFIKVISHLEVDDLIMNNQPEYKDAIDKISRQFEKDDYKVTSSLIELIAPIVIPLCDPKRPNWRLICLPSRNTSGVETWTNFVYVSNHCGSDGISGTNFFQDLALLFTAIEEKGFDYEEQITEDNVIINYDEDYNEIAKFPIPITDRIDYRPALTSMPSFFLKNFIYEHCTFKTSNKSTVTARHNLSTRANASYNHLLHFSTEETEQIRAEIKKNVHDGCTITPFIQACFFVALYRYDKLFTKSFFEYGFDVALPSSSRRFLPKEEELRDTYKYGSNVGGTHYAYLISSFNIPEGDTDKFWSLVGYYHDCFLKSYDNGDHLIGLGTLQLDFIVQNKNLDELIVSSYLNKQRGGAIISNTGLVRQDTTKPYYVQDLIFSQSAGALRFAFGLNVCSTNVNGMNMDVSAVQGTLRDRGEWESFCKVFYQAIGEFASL
Described as above. It counts as biochemical. To be noted: acetyl-CoA 0.8 mM, 50 mM potassium phosphate pH 7.5, 10% glycerol.

In the next data set the target is T3, ScAtf2p (Saccharomyces cerevisiae, UniProt P53296).
T3 construct: gene ATF2; full-length untagged, pG-ScATF2-TDH3p in S. cerevisiae BY4741 atf1 atf2 iah1, cell extract (strain CLpScATF2)
T3 sequence (P53296 1-535): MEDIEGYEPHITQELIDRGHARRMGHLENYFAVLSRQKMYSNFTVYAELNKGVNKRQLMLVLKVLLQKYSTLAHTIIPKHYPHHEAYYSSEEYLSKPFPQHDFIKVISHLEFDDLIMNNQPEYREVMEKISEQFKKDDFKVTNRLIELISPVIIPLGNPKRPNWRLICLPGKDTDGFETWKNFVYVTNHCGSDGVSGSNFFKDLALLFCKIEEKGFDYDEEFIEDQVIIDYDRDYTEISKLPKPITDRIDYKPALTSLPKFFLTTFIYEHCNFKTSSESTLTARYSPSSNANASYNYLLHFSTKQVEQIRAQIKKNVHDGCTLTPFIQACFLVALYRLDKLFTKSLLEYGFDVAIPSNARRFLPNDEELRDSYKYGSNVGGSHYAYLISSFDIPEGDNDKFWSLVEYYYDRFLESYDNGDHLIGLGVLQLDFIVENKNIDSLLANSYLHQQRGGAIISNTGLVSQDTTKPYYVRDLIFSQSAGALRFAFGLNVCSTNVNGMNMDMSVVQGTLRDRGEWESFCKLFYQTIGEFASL
The description is as above. It counts as biochemical. Particulars: acetyl-CoA 0.8 mM, 50 mM potassium phosphate pH 7.5, 10% glycerol.

Substrate in data set [1]: CC(C)CCO
Put plainly: isoamyl acetate formation by headspace SPME gas chromatography, cell extract. The format is biochemical, Saccharomyces cerevisiae. Particulars: acetyl-CoA 0.8 mM, 50 mM potassium phosphate pH 7.5, 10% glycerol, isoamyl alcohol 0.01-100 mM. An excerpt: isoamyl acetate formation by headspace SPME gas chromatography, cell extract on ScAtf1p

Substrate in data set [2]: CC(C)CCO
Described as above. The format is biochemical, Saccharomyces uvarum. To be noted: acetyl-CoA 0.8 mM, 50 mM potassium phosphate pH 7.5, 10% glycerol, isoamyl alcohol 0.01-100 mM. The source says:
isoamyl acetate formation by headspace SPME gas chromatography, cell extract on SuAtf1p

`OCCc1ccccc1` [2-phenylethanol]: the “acetate ester formation by headspace SPME gas chromatography, cell extract” value on SuAtf2p (30 mM alcohol) is “the proportion of the enzyme activity of SkAtf2p and SuAtf2p to 2-phenylethanol”; on SkAtf2p (30 mM alcohol) it was “the proportion of the enzyme activity of SkAtf2p and SuAtf2p to 2-phenylethanol”; at ScAtf2p (30 mM alcohol), “all the strains that expressed the individual ATF1 and ATF2 orthologs exhibited activities”.
Take `CC(C)CCO` [isoamyl alcohol]: the “acetate ester formation by headspace SPME gas chromatography, cell extract” value on SuAtf2p (100 mM alcohol), on SkAtf2p (100 mM alcohol) and on ScAtf2p (100 mM alcohol) was “enzymes Atf2 showed considerably stronger activity toward isoamyl alcohol than the other substrates” each time.

B1: ScAtf1p (Saccharomyces cerevisiae S288C) (protein)
chain: MNEIDEKNQAPVQQECLKEMIQNGHARRMGSVEDLYVALNRQNLYRNFCTYGELSDYCTRDQLTLALREICLKNPTLLHIVLPTRWPNHENYYRSSEYYSRPHPVHDYISVLQELKLSGVVLNEQPEYSAVMKQILEEFKNSKGSYTAKIFKLTTTLTIPYFGPTGPSWRLICLPEEHTEKWKKFIFVSNHCMSDGRSSIHFFHDLRDELNNIKTPPKKLDYIFKYEEDYQLLRKLPEPIEKVIDFRPPYLFIPKSLLSGFIYNHLRFSSKGVCMRMDDVEKTDDVVTEIINISPTEFQAIKANIKSNIQGKCTITPFLHVCWFVSLHKWGKFFKPLNFEWLTDIFIPADCRSQLPDDDEMRQMYRYGANVGFIDFTPWISEFDMNDNKENFWPLIEHYHEVISEALRNKKHLHGLGFNIQGFVQKYVNIDKVMCDRAIGKRRGGTLLSNVGLFNQLEEPDAKYSICDLAFGQFQGSWHQAFSLGVCSTNVKGMNIVVASTKNVVGSQESLEELCSIYKALLLGP
notes: full-length untagged, pG-ScATF1-TDH3p in S. cerevisiae BY4741 atf1 atf2 iah1, cell extract (strain CLpScATF1)
On to B1, for which, in data set [1], the Km came to 32.2 ± 2.2 mM and the Vmax was determined as 0.00999 µmol/min/mg.

B2: SuAtf1p (Saccharomyces uvarum) (protein)
chain: MNTYSEKTSLVQDECLAKMIQNGHSRRMGSVEDLYAALNRQKLYRNFSTYSELNDYCTKDQLTLALRNICLKNPTLLHIVLPARWPDYENYYLSTEYYSQPHPKHDYISVLPELKFDGVILNEQPEHNALMKQILQELKDNNGSYTAKVFKLTTALTIPYAGPTSPTWRLICLPEEGHTDKWKKFIFLSNHCMCDGRSSIHFFQDLRDELNNMKTPPKKLDYIFQYEKDYQLLRKLPEPIENMIDFRPPYMFIPKSLISGFIYSHLRFSSKGVCTRMDEIEKSDEVVTEIITISPSEFQKIKAIIKSNIPGKCTITPFLEVCWFVSLHKWGKFFKPLKFEWLTDVFIPADCRSLLPEDEEVRAMYRYGANVGFVDFTPWISEFNMNDSKENFWPLIAHYHEVISGAIKDKKHLNGLGFNIQGLVQKYVNIDKVMRDRALGKSRGGTLLSNVGIFHQSEETDSRYSIRDLAFGQFQGSWHQAFSLGVCSTNVKGMNIVISSTKNVVGSQESLEELCAMYKALLLNP
notes: full-length untagged, pG-SuATF1-TDH3p in S. cerevisiae BY4741 atf1 atf2 iah1, cell extract (strain CLpSuATF1); N-terminus MNTYSE translated from printed primer pGSuATF1f
For the molecule B2, in data set [2], the Michaelis constant (Km) came to 92.9 ± 10.9 mM and the Vmax was 0.00569 µmol/min/mg.
